Drawing on paper PMC9821961, “Ring-Modified Histidine-Containing Cationic Short Peptides Exhibit Anticryptococcal Activity by Cellular Disruption” (Molecules, 2022), this text covers IC50 and MIC for 14 compounds.

What all share (test): microbe, parasite or virus in culture
What all share (conditions): 48 h

One assay relates to C. neoformans. Format: cell-based, Cryptococcus neoformans. An excerpt:
(§1) Microbial strains: Microbial strains were procured from National Culture Collection of Pathogenic Fungi (NCCPF) at the Postgraduate Institute of Medical Education & Research (PGIMER), Chandigarh and Microbial Type Culture Collection and Gene bank (MTCC) at the Institute of Microbial Technology (IMTECH), Chandigarh, India. Peptides were screened against five different strains of fungi: viz. Candida albicans (NCCPF400034), Candida glabrata (MTCC 3019), Candida parapsilosis (NCCPF 440002), Candida krusei (NCCPF 440002) and Cryptococcus neoformans (NCCPF250316), and five strains of bacteria: viz. Escherichia coli (MTCC 2961), Staphylococcus aureus (MTCC 3160), Enterococcus faecalis (MTCC 439), Streptococcus pyogenes (MTCC 442) and Pseudomonas aeruginosa (MTCC 3542).
(§2) Growth media: Antifungal susceptibility testing was carried out using standard broth microdilution assays as per the Clinical and Laboratory Standards Institute (CLSI) guidelines for fungi. RPMI 1640 (Sigma), yeast extract, peptone and dextrose (YPED, Himedia) were used as the incubation broths. The cells were diluted to a cell density of 10^3 colony forming unit (CFU/mL) and incubated at 30 °C for 48 h. Furthermore, Muller Hinton (Himedia) media was utilized for bacterial strains and antibacterial activity was evaluated per CLSI guidelines for bacteria. Bacterial cells were diluted to a cell density of 10^5 CFU/mL and incubated at 37 °C for 24 h. Amphotericin B (Himedia, India) and rifampicin (Himedia, India) were used as standard drugs for the evaluation of activity against all the fungal and bacterial strains, respectively.
(§3) The stock solutions of peptides (2 mg/mL) were prepared in DMSO. Specific amounts of peptide from stock solution were added to a 96-well microtiter plate containing 100 μL of growth media and then serially diluted two-fold. A further 100 μL of growth media containing microbial cells were added to each well and incubated at 30–37 °C for 24–48 h. The optical density (OD) was measured at 600 nm using a BioStack Ready (BioTek Instruments, Winooski, VT, USA) microplate reader to analyze microbial growth inhibition, and IC50 and MIC values were calculated. To visualize the growth and inhibition pattern, a solution of 3-(4,5-dimethylthiazol-2-yl)-2,5-diphenyltetrazolium bromide (MTT) in water was added to the plate and incubated for 2–3 h. MTT reacts with the mitochondrial dehydrogenases, which are present only in a viable cell, to give blue colored formazan crystals. Therefore, a darker color indicates a high number of viable cells; however, non-viable cells appear pale or colorless.

The test system of another assay is C. albicans. The assay is classed as cell-based, Candida albicans.
Text: as §1, §2, §3

Another assay relates to C. glabrata. Format: cell-based, Candida glabrata.
Text: as §1, §2, §3

In the next assay the test system is C. parapsilosis. The assay is classed as cell-based, Candida parapsilosis.
Text: as §1, §2, §3

The next assay deals with C. krusei. Format: cell-based, Candida krusei.
Text: as §1, §2, §3

SMILES strings stand for the structures. ≈ marks a conversion by molar mass, not a printed value.

For `COC(=O)[C@H](Cc1ncn(Cc2cc(F)cc(F)c2)c1I)NC(=O)[C@H](Cc1c[nH]c2ccccc12)NC(=O)OC(C)(C)C` [9j], the IC50 in the assay with C. neoformans was 17.73 µg/mL (≈ 25.1 µM); with C. albicans it was more than 35.2 µg/mL; in the assay with C. glabrata it was more than 35.2 µg/mL; in the assay on C. parapsilosis it was more than 35.2 µg/mL; in the assay with C. krusei, more than 35.2 µg/mL. In addition, the MIC against C. neoformans was 32.25 µg/mL (≈ 45.6 µM); in the assay with C. albicans it was more than 64.0 µg/mL; against C. glabrata, more than 64.0 µg/mL; in the assay on C. parapsilosis it was more than 64.0 µg/mL; with C. krusei, more than 64.0 µg/mL.

Take `COC(=O)[C@H](Cc1ncn(Cc2cccc(Br)c2)c1I)NC(=O)[C@H](Cc1c[nH]c2ccccc12)NC(=O)OC(C)(C)C` [9m]: the IC50 is 18.63 µg/mL (≈ 24.8 µM) with C. neoformans; more than 35.2 µg/mL with C. albicans; more than 35.2 µg/mL with C. glabrata; more than 35.2 µg/mL in the assay with C. parapsilosis; more than 35.2 µg/mL with C. krusei. For the same compound, the MIC was 33.88 µg/mL (≈ 45.1 µM) in the assay on C. neoformans; more than 64.0 µg/mL with C. albicans; more than 64.0 µg/mL in the assay with C. glabrata; more than 64.0 µg/mL with C. parapsilosis; more than 64.0 µg/mL in the assay with C. krusei.

Regarding `COC(=O)[C@H](Cc1ncn(Cc2ccccc2C(F)(F)F)c1I)NC(=O)[C@H](Cc1c[nH]c2ccccc12)NC(=O)OC(C)(C)C` [9f], the IC50 in the assay with C. neoformans is 30.56 µg/mL (≈ 41.3 µM); with C. albicans, more than 35.2 µg/mL; in the assay on C. glabrata it was more than 35.2 µg/mL; with C. parapsilosis, more than 35.2 µg/mL; in the assay on C. krusei, more than 35.2 µg/mL. The MIC against C. neoformans is 55.57 µg/mL (≈ 75.1 µM); with C. albicans, more than 64.0 µg/mL; against C. glabrata, more than 64.0 µg/mL; against C. parapsilosis, more than 64.0 µg/mL; in the assay with C. krusei it was more than 64.0 µg/mL.

On to `COC(=O)[C@H](Cc1ncn(Cc2ccc(F)c(F)c2)c1I)NC(=O)[C@H](Cc1c[nH]c2ccccc12)NC(=O)OC(C)(C)C` [9i], for which the half-inhibitory concentration (IC50) in the assay with C. neoformans was 17.62 µg/mL (≈ 24.9 µM); with C. albicans, more than 35.2 µg/mL; in the assay on C. glabrata, more than 35.2 µg/mL; with C. parapsilosis it was more than 35.2 µg/mL; with C. krusei, more than 35.2 µg/mL. Further, the MIC is 32.05 µg/mL (≈ 45.3 µM) in the assay on C. neoformans; more than 64.0 µg/mL against C. albicans; more than 64.0 µg/mL against C. glabrata; more than 64.0 µg/mL with C. parapsilosis; more than 64.0 µg/mL in the assay with C. krusei.

On to `COC(=O)[C@H](Cc1ncn(Cc2cccc(F)c2)c1I)NC(=O)[C@H](Cc1c[nH]c2ccccc12)NC(=O)OC(C)(C)C` [9k], for which the concentration for half-maximal inhibition (IC50) with C. neoformans was 18.16 µg/mL (≈ 26.3 µM); in the assay on C. albicans it was more than 35.2 µg/mL; with C. glabrata, more than 35.2 µg/mL; with C. parapsilosis it was more than 35.2 µg/mL; in the assay on C. krusei, more than 35.2 µg/mL. The MIC with C. neoformans is 32.02 µg/mL (≈ 46.4 µM); in the assay with C. albicans it was more than 64.0 µg/mL; in the assay with C. glabrata, more than 64.0 µg/mL; in the assay on C. parapsilosis it was more than 64.0 µg/mL; in the assay on C. krusei, more than 64.0 µg/mL.

Turning to `COC(=O)[C@H](Cc1ncn(Cc2ccccc2I)c1I)NC(=O)[C@H](Cc1c[nH]c2ccccc12)NC(=O)OC(C)(C)C` [9o], the half-maximal inhibitory concentration (IC50) in the assay on C. neoformans, with C. albicans, in the assay with C. glabrata, in the assay with C. parapsilosis and in the assay with C. krusei was more than 35.2 µg/mL throughout. Moreover, the MIC against C. neoformans, in the assay with C. albicans, in the assay on C. glabrata, in the assay with C. parapsilosis and in the assay with C. krusei was more than 64.0 µg/mL throughout.

Consider `COC(=O)[C@H](Cc1ncn(Cc2cc(F)cc(F)c2)c1I)NC(=O)[C@@H](N)Cc1c[nH]c2ccccc12` [10j], for which the IC50 in the assay with C. neoformans was 6.09 µg/mL (≈ 10 µM); with C. albicans, more than 35.2 µg/mL; in the assay with C. glabrata, more than 35.2 µg/mL; with C. parapsilosis, more than 35.2 µg/mL; in the assay on C. krusei, more than 35.2 µg/mL. Also, the MIC in the assay on C. neoformans was 11.08 µg/mL (≈ 18.2 µM); in the assay on C. albicans it was more than 64.0 µg/mL; in the assay with C. glabrata, more than 64.0 µg/mL; with C. parapsilosis, more than 64.0 µg/mL; against C. krusei it was more than 64.0 µg/mL.

Turning to `COC(=O)[C@H](Cc1ncn(Cc2ccc(C(C)(C)C)cc2)c1I)NC(=O)[C@H](Cc1c[nH]c2ccccc12)NC(=O)OC(C)(C)C` [9b], the concentration for half-maximal inhibition (IC50) with C. neoformans, in the assay with C. albicans, in the assay on C. glabrata, in the assay with C. parapsilosis and in the assay on C. krusei was more than 35.2 µg/mL throughout. The MIC in the assay on C. neoformans, with C. albicans, with C. glabrata, against C. parapsilosis and in the assay with C. krusei was more than 64.0 µg/mL each time.

As for `COC(=O)[C@H](Cc1ncn(Cc2ccc(C(F)(F)F)cc2)c1I)NC(=O)[C@H](Cc1c[nH]c2ccccc12)NC(=O)OC(C)(C)C` [9g], the IC50 in the assay with C. neoformans, with C. albicans, in the assay with C. glabrata, in the assay on C. parapsilosis and in the assay with C. krusei was more than 35.2 µg/mL throughout. The MIC against C. neoformans, against C. albicans, with C. glabrata, against C. parapsilosis and against C. krusei was more than 64.0 µg/mL throughout.

In the case of `COC(=O)[C@H](Cc1ncn(Cc2cccc(Cl)c2)c1I)NC(=O)[C@H](Cc1c[nH]c2ccccc12)NC(=O)OC(C)(C)C` [9l], the IC50 in the assay with C. neoformans is 18.59 µg/mL (≈ 26.3 µM); in the assay with C. albicans it was more than 35.2 µg/mL; with C. glabrata, more than 35.2 µg/mL; in the assay with C. parapsilosis it was more than 35.2 µg/mL; with C. krusei, more than 35.2 µg/mL. The MIC in the assay on C. neoformans is 33.80 µg/mL (≈ 47.9 µM); with C. albicans, more than 64.0 µg/mL; against C. glabrata, more than 64.0 µg/mL; in the assay on C. parapsilosis, more than 64.0 µg/mL; with C. krusei it was more than 64.0 µg/mL.

Regarding `COC(=O)[C@H](Cc1ncn(Cc2ccccc2C(F)(F)F)c1I)NC(=O)[C@@H](N)Cc1c[nH]c2ccccc12` [10f], the IC50 in the assay with C. neoformans was 17.70 µg/mL (≈ 27.7 µM); with C. albicans, more than 35.2 µg/mL; in the assay on C. glabrata, more than 35.2 µg/mL; in the assay with C. parapsilosis, more than 35.2 µg/mL; in the assay on C. krusei it was more than 35.2 µg/mL. Moreover, the MIC in the assay with C. neoformans was 32.18 µg/mL (≈ 50.3 µM); in the assay on C. albicans it was more than 64.0 µg/mL; in the assay with C. glabrata it was more than 64.0 µg/mL; with C. parapsilosis, more than 64.0 µg/mL; against C. krusei, more than 64.0 µg/mL.

With `COC(=O)[C@H](Cc1ncn(Cc2cccc(Br)c2)c1I)NC(=O)[C@@H](N)Cc1c[nH]c2ccccc12` [10m], the half-inhibitory concentration (IC50) with C. neoformans was 9.23 µg/mL (≈ 14.2 µM); with C. albicans it was more than 35.2 µg/mL; in the assay on C. glabrata it was more than 35.2 µg/mL; with C. parapsilosis it was more than 35.2 µg/mL; in the assay on C. krusei, more than 35.2 µg/mL. The MIC in the assay with C. neoformans is 16.79 µg/mL (≈ 25.8 µM); in the assay with C. albicans, more than 64.0 µg/mL; in the assay on C. glabrata, more than 64.0 µg/mL; with C. parapsilosis it was more than 64.0 µg/mL; against C. krusei it was more than 64.0 µg/mL.

Take `COC(=O)[C@H](Cc1ncn(Cc2cccc(C(F)(F)F)c2)c1I)NC(=O)[C@H](Cc1c[nH]c2ccccc12)NC(=O)OC(C)(C)C` [9e]: the IC50 in the assay with C. neoformans is 20.71 µg/mL (≈ 28 µM); in the assay with C. albicans, more than 35.2 µg/mL; in the assay with C. glabrata it was more than 35.2 µg/mL; in the assay on C. parapsilosis it was more than 35.2 µg/mL; with C. krusei, more than 35.2 µg/mL. In addition, the MIC was 37.65 µg/mL (≈ 50.9 µM) against C. neoformans; more than 64.0 µg/mL against C. albicans; more than 64.0 µg/mL in the assay with C. glabrata; more than 64.0 µg/mL with C. parapsilosis; more than 64.0 µg/mL against C. krusei.

As for `COC(=O)[C@H](Cc1ncn(Cc2cccc(I)c2)c1I)NC(=O)[C@H](Cc1c[nH]c2ccccc12)NC(=O)OC(C)(C)C` [9n], the IC50 is 23.58 µg/mL (≈ 29.6 µM) with C. neoformans; more than 35.2 µg/mL in the assay on C. albicans; more than 35.2 µg/mL in the assay on C. glabrata; more than 35.2 µg/mL with C. parapsilosis; more than 35.2 µg/mL with C. krusei. Besides, the MIC against C. neoformans is 42.87 µg/mL (≈ 53.8 µM); against C. albicans, more than 64.0 µg/mL; in the assay on C. glabrata, more than 64.0 µg/mL; against C. parapsilosis, more than 64.0 µg/mL; against C. krusei it was more than 64.0 µg/mL.
